# Data taken from patent US20110129463A1, “Quinazolin-4(3A)-One Derivatives and Methods of Use Thereof” (Proteologics, Ltd., priority 2009, published 2011).
# Tests used:
# EAE = EAE model for multiple sclerosis, clinical score; format: in vivo, CSJL/F1 mice
# Description: The EAE model in CSJL/F1 mice is an established model for multiple sclerosis. Disease is induced in all mice by the injection of the encephalitogenic emulsion (MSCH/CFA, 0.05 ml injected into the left foot-pad of each mouse). Treatment with Compound A at 10 and 20 mg/kg or solvent (5% DMSO, 10% PEG400, 5% Solutol HS15, 5% Tween 80) by intraperitoneal injection, was started from day 1 of the study and administered twice daily in the first 9 days and then once daily until the end of the study. Scoring of EAE clinical signs were initiated from the 10th day post-EAE induction and continued daily. The clinical signs were recorded according to a grading system described in the table 1.
# oxazolone-induced DTH = assay: Oxazolone-induced delayed-type hypersensitivity (DTH), ear swelling; format: in vivo, BALB/c mice; settings: oral, 1 hour before oxazolone challenge; compared with the control
# From the text: A delayed-type hypersensitivity (DTH) reaction is an expression of cell-mediated immunity and plays a major role in the pathology and chronicity of many inflammatory disorders. Delayed-type hypersensitivity (DTH) reactions can be induced by various allergens, including oxazolone, 2,4-dinitrofluorobenzene (DNFB) and sheep red blood cells (SRBCs). One of the most characteristic DTH phenomena is contact hypersensitivity, which is characterized by swelling and by increased tissue levels of cytokines. Contact hypersensitivity (CHS) is a T cell-mediated immune reaction in response to cutaneous sensitization and challenge with reactive haptens that are capable of binding directly to soluble and cell-associated proteins and recognized by T cells in the context of self-MHC products. The cells that recognize antigen-protein complex in the skin are the Langerhans cells (LCs). After topically allergen application, Langerhans cells (LCs), the major antigen-presenting cells (APCs) for the induction of immune responses in skin, show enhanced expression of surface MHC class II molecules, and start to emigrate from the skin to regional lymph nodes where specific lymphocyte activation is thought to occur. After a second contact with the hapten, T cells are first recruited into tissues and then activated by antigen-presenting cells to produce cytokines that mediate local inflammation. Myeloperoxidase (MPO) is an enzyme exclusively present in neutrophil granules, which is commonly used as an index of granulocyte infiltration, and its inhibition is indicative of an anti-inflammatory action.
# The goal of the present study is to examine the effects of Compounds A, B and C on oxazolone-induced DTH. […]
# Ear swelling response was determined by ear thickness measured with a micrometer before and 24 hours after oxazolone challenge and reported as the mean change in ear thickness (ΔT±S.E.M.). Percent suppression of ear swelling response was calculated as % suppression=[1−(ΔT of sensitized mice exposed to experimental treatment/ΔT of sensitized mice exposed to vehicle treatment)]×100. […]
# A375 cells = assay: Viability of A375 cancer cells (WST-1 reagent); format: cell-based; settings: viability 72 hours post treatment
# Description: A375 cells (CRL-1619, Melanoma cancer cells, American Type Culture Collection (“ATCC”), Manassas Va., USA) were cultured with RPMI and 10% FBS (300 cells per well). Twenty-four hours after seeding the cells were treated with different concentrations of Compound A. Viability of the cells was tested seventy-two hours post treatment using WST-1 reagent (Roche). The LD50s were calculated using Prism software (Graphpad). Compound A killed the A375 cancer cells with LD50 of 20 μM (FIG. 2A).
# A375 melanoma cell line = assay: TRANSWELL cell migration of A375 melanoma cells; format: cell-based; settings: Homo sapiens, A-375, 24 hours, read-out: IC50 of inhibitory effect on cell-migration
# Description: The A375 cells were cultured with RPMI and 10% FBS. The cells were starved for 24 hours in medium without FBS. At the end of the starvation, 5×10^4 cells in medium without FBS were placed in the upper chamber of 24-well, TRANSWELL apparatus (Corning TRANSWELL® polycarbonate membrane inserts, 5 μm pore size with solvent (DMSO/PEG400) or different concentrations of Compound A, B, C or D. Medium with FBS and compound A, B, C or D was added to the bottom chamber. Twenty-four hours later the cells from the upper chamber were removed with a cotton swab. Cells that migrated to the lower side of the membrane were stained with Calcein-AM (Sigma) and images were taken with a fluorescence microscope. The number of migrating cells was quantified by Image J software and the IC50 values were calculated using Prism software (Graphpad).
# [1] = tested on: D122 Lewis lung cancer cells; assay: Formation of lung cancer metastasis, D122 cells injected into tail vein; format: in vivo, C57BL mice; settings: 20 mg/kg intraperitoneal twice daily for 28 days
# Description: Suppressive activity against formation of lung cancer metastasis was tested using D122 Lewis lung cancer cells injected into the tail vein of male C57BL mice. Animals were treated twice daily by intraperitoneal injection of Compound A at 20 mg/kg or solvent (5% DMSO, 10% PEG400, 5% Solutol HS15, 5% Tween 80). Treatment was continued for 28 days. On day 33, animals were sacrificed, lungs were removed and weighed. When the Compound A and vehicle groups are compared, there is about a 50% decrease in added lung weight in the Compound A group (FIG. 3). The average weight gain in the control group was 250 mg while in the Compound A group it was only 125 mg. Analyzing the data using two tailed T test indicate a the data is significant (pValue=0.0085). The effect seen following administration of Compound A, supports the claim that this compound has anti-metastatic activity.
Compound,effect on EAE clinical signs (EAE; 10 mg/kg intraperitoneal),EAE clinical signs relative to the score for water and vehicle controls (EAE; 20 mg/kg intraperitoneal),anti-inflammatory activity in DTH study (FIG. 7) (oxazolone-induced DTH),LD50 (killing of A375 cancer cells) (A375 cells),IC50 (A375 melanoma cell line),"average weight gain (added lung weight) ([1]; day 33, control group 250 mg)",decrease in added lung weight vs vehicle group ([1]; lungs weighed on day 33)
"O=c1c2ccccc2nc(/C=C/c2ccc(O)cc2)n1-c1cccc([N+](=O)[O-])c1 [Compound A, 2-[2-(4-Hydroxyphenyl)-vinyl]-3-(3-nitrophenyl)-4-quinazolone]",No effect,about half,same anti-inflammatory activity as the control,20 µM,100 nM,125 mg,~50%
"COc1ccc(/C=C/c2nc3ccccc3c(=O)n2-c2cccc([N+](=O)[O-])c2)cc1 [Compound B, (E)-2-(4-methoxystyryl)-3-(3-nitrophenyl)quinazolin-4(3H)-one]",–,–,same anti-inflammatory activity as the control,–,45 nM,–,–
"O=c1c2ccccc2nc(/C=C/c2ccc(Br)cc2)n1-c1cccc([N+](=O)[O-])c1 [Compound C, (E)-2-(4-bromostyryl)-3-(3-nitrophenyl)quinazolin-4(3H)-one]",–,–,same anti-inflammatory activity as the control,–,920 nM,–,–
"Cn1ccc(/C=C/c2nc3ccccc3c(=O)n2-c2cccc(N(O)O)c2)n1 [Compound D, (E)-3-(3-(dihydroxyamino)phenyl)-2-(2-(1-methyl-1H-pyrazol-3-yl)vinyl)quinazolin-4(3H)-one]",–,–,–,–,61 nM,–,–
